Data: US5663197A, “2-(1-hydroxyethyl)-5-hydroxynaphtho[2,3-b]furan-4,9-dione and antitumor agents comprising this compound” (priority 1992, dated 1997)

Tested on: carcinogenic promotion (skin papillomas in mice)
Test: Inhibition of two-step skin carcinogenesis in mice skin
Type: in vivo, mouse (female ICR)
Conditions: DMBA initiator, TPA promoter, 20 weeks; FIG. 28 (NFD 85 nmol), FIG. 29 (lapacoal)
Protocol: Female ICR mice were used as test animals. Fifteen mice were housed in a cage and kept on a commercial pellet diet and drinking water ad libitum until the end of the experiment. The mice were purchased at their age of six-week-old. Dorsal hair of mice was shaved, and next day, 390 nmol of 7,12-dimethylbenz(a)anthracene (DMBA) in 0.1 ml acetone was applied, as an initiator, on the shaved back. One week later, 1.7 nmol of 12-O-tetradecanoylphorbol-13-acetate (TPA) in 0.1 ml acetone was applied, as a promoter, to the same place twice a week. This procedure was repeated for 20 weeks.
Mice were observed once a week for the number of papillomas larger than 1 mm, and the experimental results were given as the percentage of papilloma-bearing mice in each group and the number of papillomas per mouse.

With `CC(C)=CCC1=C(O)C(=O)c2ccccc2C1=O` [lapacoal, reference compound] the “inhibitory effect on carcinogenic promotion in skin” value was “inhibitory effect”.
